Source: PubChem BioAssay AID1996
Values after ≈ are worked out from the molar mass of the structure shown.

Details: buffer; pH 7.4; 200.0 µM

Row | SMILES | solubility kinetic [µg/mL]
1 | COc1ccc2c(c1)CCc1c(C(=O)NCC(C)C)noc1-2 | 1.5 (≈ 4.99 µM)
2 | Cc1noc(C)c1C(=O)Nc1nc2ccc(Cl)cc2s1 | 2.1 (≈ 6.82 µM)
3 | Cc1ccc(Cl)cc1NC(=O)COc1ccccc1 | 1.9 (≈ 6.89 µM)
4 | COCCCNC(=S)N1CCC(NC(=O)c2ccco2)CC1 | > 48.8
5 | Cc1nc(N)c(CC(Br)CBr)c(Cl)n1 (stereo unspecified) | 49.1 (≈ 143 µM)
6 | Cn1c(=O)c2c(nc(N3CCCC3)n2C)n(C)c1=O | > 39.5
7 | CNc1nc(-c2ccccc2)cc(C)c1S(C)(=O)=O | 22.8 (≈ 82.5 µM)
8 | Cc1ccc(-c2csc(NC(=O)c3c(C)noc3C)n2)cc1C | 1.7 (≈ 5.19 µM)
9 | CC(=O)N/C(=N/c1nc(C)cc(C)n1)Nc1ccc(C)cc1Cl | 0.2 (≈ 0.603 µM)
10 | CNC(=O)C(=O)Nc1c(O)c2ccccc2[nH]c1=O | > 39.2
11 | CCOC(=O)c1ccccc1NC(=O)COC(=O)C1CCCC1 | 3.1 (≈ 9.71 µM)
12 | O=C(O)CCNC(=O)/C(=C\c1ccco1)NC(=O)c1ccco1 | > 47.7
13 | COc1ccc(CNC(=O)COC(=O)c2cc3ccccc3cc2O)cc1OC | 25.9 (≈ 65.5 µM)
14 | S=C(NCc1ccccc1)Nc1ccc(Oc2ccccc2)cc1 | 6.8 (≈ 20.3 µM)
15 | CCOc1ccc(C(=O)OC2CCCN(C)C2)cc1.Cl (stereo unspecified) | > 45
16 | COC(=O)c1c(O)cc(=O)n2c1CCCCC2 | 33.3 (≈ 140 µM)
17 | COc1ccc(OC)c(NC(=O)C2CC2c2ccccc2)c1 (stereo unspecified) | 18 (≈ 60.5 µM)
18 | C=CCNC(=S)N1CCOCC1 | > 27.9
19 | COc1ccc(-c2cc3cc(OC)c(OC)cc3c(C)n2)cc1C | < 0.7
20 | CN1CCN(NC(=O)NC2CCCCC2)CC1 | > 36.1

Row | SMILES | solubility kinetic [µg/mL]
21 | O=C(Nc1cc(Cl)ccc1Cl)C1Cc2ccccc2O/C1=N\O (stereo unspecified) | 2.8 (≈ 7.97 µM)
22 | Brc1c(-c2ccccc2)nc2n1Cc1ccccc1-2 | 0.6 (≈ 1.93 µM)
23 | O=C(COC(=O)C12CC3CC(CC(Cl)(C3)C1)C2)Nc1ccccc1 | 5.9 (≈ 17 µM)
24 | COCc1c(C(=O)OCC(=O)Nc2ccc(OC(F)F)cc2)oc2ccccc12 | 13.4 (≈ 33.1 µM)
25 | NC(=O)C1CCN(C(=O)CC2(CC(=O)O)CCCC2)CC1 | > 44.5
26 | CCOC(=O)c1cc2c(=O)[nH]ccc2nc1C(F)(F)F | > 42.9
27 | CCCCNC(=O)CC1NCCNC1=O (stereo unspecified) | > 32
28 | CCC1CCCCN1C(=O)CSc1nc(C)cc(C)n1 (stereo unspecified) | > 44
29 | CCc1ncc(C)nc1CC | 6.7 (≈ 44.6 µM)
30 | CC(C)Cc1ccc(C(C)C(=N)N)cc1.Cl (stereo unspecified) | > 36.1
31 | CCOC(=O)C1=C(COC(=O)CCc2ccc(CC)cc2)NC(=O)NC1C (stereo unspecified) | 40 (≈ 107 µM)
32 | O=C(Nc1cccc(F)c1)Nc1c[nH]c(=O)[nH]c1=O | 2.4 (≈ 9.08 µM)
33 | C=CCSc1nc2ccccc2n2cnnc12 | > 36.3
34 | COc1ccc(NC(=O)c2cc3ccccc3o2)cn1 | 3.8 (≈ 14.2 µM)
35 | CCn1c2ccccc2c2cc(NC(=O)c3ccc(=O)oc3)ccc21 | 1.2 (≈ 3.61 µM)
36 | CCc1ccc(OCCOCCN2CCN(C)CC2)cc1.O=C(O)C(=O)O | 54
37 | Cc1cc(C)c(C#N)c(SCC(=O)Nc2nonc2N)n1 | 15.3 (≈ 50.3 µM)
38 | COc1ccc(Nc2ccc([N+](=O)[O-])cc2[N+](=O)[O-])cc1 | 1.5 (≈ 5.19 µM)
39 | Cc1ccc(CSCC(=O)NCc2ccc3c(c2)OCO3)cc1 | 11.5 (≈ 34.9 µM)

The next lines start with the values.

Row | solubility kinetic [µg/mL] | SMILES
40 | 0.6 (≈ 2.09 µM) | O=C(Nc1ccc([N+](=O)[O-])cc1)OCCc1ccccn1
41 | 3.9 (≈ 11.9 µM) | O=C(/C=C/c1ccc(-c2cccc([N+](=O)[O-])c2)o1)N1CCOCC1
42 | 6.1 (≈ 17.9 µM) | Cc1ccc(C)c(OCC(=O)Nc2ccc(N3CCOCC3)cc2)c1
43 | > 41.4 | O=C(c1ccccc1F)N1CCN(C(=O)C2CC2)CC1
44 | 25.5 (≈ 78.8 µM) | Cc1cc(C)cc(NC(=O)Nc2ccccc2N2CCCCC2)c1
45 | > 48.7 | COc1ccc(C(=O)Nc2ccc(CN3CCCCC3)cc2)cc1
46 | 8.3 (≈ 25.7 µM) | O=S(=O)(c1ccc(F)cc1)N1CCN(c2ncccn2)CC1
47 | > 42.6 | O=C(Nc1ccc(N2CCOCC2)cc1)c1cnccn1
48 | 39.7 (≈ 145 µM) | O=C(NC(O)C(=O)c1ccccc1)c1ccc(F)cc1 (stereo unspecified)
49 | < 0.3 | O=C(Nc1ccc(F)cc1)Nc1ccc2c(c1)CCC2
50 | > 41.9 | NC(=O)CN1C(=O)C(=O)N(Cc2ccc(F)cc2)C1=O
51 | > 52.8 | CC(=O)N1CCN(C(=O)CCCNC(=O)c2ccc(Cl)cc2)CC1
52 | 45.5 (≈ 148 µM) | CN1CCN(CCNC(=O)Nc2ccccc2[N+](=O)[O-])CC1
53 | 1.9 (≈ 7.03 µM) | CSC1=NCCN1C(=O)c1ccc2ccccc2c1
54 | > 33.9 | CCC(C)NC(=S)Nc1ccc(F)cc1 (stereo unspecified)
55 | 2.2 (≈ 6.74 µM) | Cc1ccc(NC(=O)CN(C)C(=O)/C=C/c2cccc(F)c2)cc1
56 | 30.7 (≈ 98.3 µM) | N#Cc1cc2c(nc1S(=O)(=O)Cc1ccccc1)CCCC2
57 | > 33.5 | O=C1Nc2ccccc2CCc2ccccc21
58 | 3.8 (≈ 11.3 µM) | O=S(=O)(c1ccccc1)N1CCN(c2cccc(Cl)c2)CC1
59 | > 50.3 | O=C(COC(=O)CCC(=O)c1ccc(F)cc1)NC1CCCCC1
60 | > 36.1 | Cl.c1ccc(C2CN3CCSC3=N2)cc1 (stereo unspecified)
61 | < 0.2 | O=C(Nc1ccccc1Cl)Nc1cccc2cccnc12
